Data on 3 compounds can be found in PMC6627486, “Ipomoeassin F Binds Sec61α to Inhibit Protein Translocation” (Journal of the American Chemical Society, 2019).

For data set [1], the system named is A2780 human ovarian cancer cells. Also noted: method as in PMID 15844934. As to conditions: read-out: IC50, proliferation of A2780 cells; cited from earlier work.
Data set [2] has as its target T1, Sec61-mediated protein translocation (Canis lupus familiaris, UniProt P38377).
T1 construct: ER microsomes derived from canine pancreas; from tissue; host or cells: canine pancreas ER microsomes (nuclease-treated)
The data set is described as follows: In vitro translation and Sec61-dependent translocation into ER microsomes. The format is biochemical, canine. As to conditions: type II membrane protein Ii, ER microsomes. The source says: In Vitro Membrane Translocation Assays.
Unless otherwise stated, all cDNAs are of human origin and as previously described: CytB5OPG2,16 GypC,17 ppαF (Saccharomyces cerevisiae),16 ppcecAOPG2 (Hyalophora cecropia),16 PPL (Bos Taurus),16 Sec61βOPG216 and VCAM1.17 Ii encodes residues 17 to 232 of the short form of human HLA class II histocompatibility antigen gamma chain (Ii; P04232, isoform 2). Linear DNA templates were generated by PCR and transcribed into RNA using T7 or SP6 polymerase (Promega).
In vitro translation and translocation into ER microsomes
Translation reactions (20 μL) were performed in nuclease-treated rabbit reticulocyte lysate (Promega) in the presence of EasyTag EXPRESS 35S Protein Labelling Mix containing [35S] methionine (Perkin Elmer) (0.533 MBq; 30.15 TBq/mmol). Amino acids minus methionine (Promega) were added to 25 µM each, […]
equivalent volume of DMSO, and nuclease-treated ER microsomes (from stock with OD280 = 44/mL) were added to 6.5% (v/v). Lastly, 10% volume of in vitro transcribed mRNA (from 200-1000 ng/μL stocks) encoding the relevant precursor protein was added and translation reactions performed for 20 min at 30°C. Following incubation with 0.1 mM puromycin for 5 min at 30°C to ensure translational termination and ribosome release, membrane-associated fractions were isolated by centrifugation through an 80 μL high-salt cushion (0.75 M sucrose, 0.5 M KOAc, 5 mM Mg(OAc)2, 50 mM Hepes-KOH, pH 7.9) at 100,000 x g for 10 min at 4°C in a TLA100 rotor (Beckmann). Membrane pellets were suspended directly in SDS (sodium dodecyl sulphate) sample buffer (0.02% bromophenol blue, 62.5 mM, 4% (w/v) SDS, 10% (v/v) glycerol, pH 7.6, 1 M dithiothreitol) and, where indicated, treated with 1,000 U of Endoglycosidase H (New England Biolabs) for 30 min at 37°C prior to analysis. All samples were denatured for 10 min at 70°C prior to resolution by SDS-PAGE (12% or 16% polyacrylamide gels, 120 V, 120 min), gels were fixed (20% MeOH, 10% AcOH) for 5 min, dried (BioRad gel dryer) for 2 h at 65°C and, following exposure to a phosphorimaging plate for 24-72 h, radiolabelled products were visualised using a Typhoon FLA-7000 (GE Healthcare).
Quantitative analysis of Ii membrane insertion was performed using AIDA v.5.0 (Raytest Isotopenmeβgeräte) whereby the ratio of the signal intensity for the 2Gly/0Gly forms was used as a read-out to estimate efficiency of integration into the ER membrane. This value was then expressed relative to the matched DMSO control in order to derive the mean relative ER insertion from three independent experiments (n=3). Statistical significance of the effectiveness of Ipom-F analogues (RM one-way ANOVA) was determined using Tukey’s multiple comparisons test. IC50 value estimates were determined using non-linear regression to fit data to a curve of variable slope (four parameters) using the least squares fitting method in which the bottom and top plateaus of the curve were defined as 0% and 100% respectively. The differences between the estimated IC50 values for the three compounds analysed were statistically significant (****) according to the extra-sum-of-squares F test. Statistical analyses and IC50 estimates were performed using Prism 7.0d (GraphPad) with statistical significance given as n.s., non - significant and ****, P < 0.0001.
U2-OS secNLuc-ATZ Secretion and Cell Viability Assays

For data set [3], the system named is HCT116. The data set is described as follows: cells. To be noted: Homo sapiens, HCT-116; HCT116, 72 h, Alamar Blue, assayed separately; read-out: Cytotoxicity (IC50). The format is cell-based. The procedure:
(§1) AlamarBlue Cytotoxicity Assay
(§2) MDA-MB-231, MCF-10A and HCT116. Viable cells were counted with a hemocytometer immediately before each experiment . Experiments were done in triplicate. First, 100 μL of MDA-MB-231 cells or MCF-10A cells at the density of 50,000 cells/mL was seeded in a 96-well plate (5,000 cells/well) and then incubated at 37 °C and 5% CO2 for 24 h. The compounds were dissolved in DMSO (dimethyl sulfoxide) to make drug stocks (10 mM). The stock solutions were diluted with the complete DMEM high glucose culture medium to make a series of gradient fresh working solutions right before each test. Subsequently, the cells were treated with 100 μL of the freshly made gradient working solution in a total volume of 200 μL/well for 72 h. After that, the media were discarded and 200 μL of the fresh complete medium containing 10% of AlamarBlue (resazurin) stock solution was added to each well. The plate was then incubated at 37 °C and 5% CO2 for another 3 h. Emission of each well at 620 nm was detected by a microplate reader (BioTek Synergy H1) at excitation 580 nm. For HCT116 WT and mutant lines, cells were seeded at 1000 cells/ well in complete McCoys medium. Compounds were diluted from a DMSO stock into culture medium as described above. Cells were treated for 96 h, then viability measured with AlamarBlue, detected using the conditions described but with a BMG Fluostar Optima Microplate Reader. The percentage of viability compared to the negative control (DMSO-treated cells) was determined. […]
HCT116 and HEK293T. Viable cells were counted using an automated cell counter (BioRad TC20) before each experiment. […] Emission of each well at 620 nm was detected by a microplate reader (Perkin Elmer EnSpire) at excitation 580 nm. The percentage of viability compared to the negative control (DMSO -treated cells) was determined. […]
Figure S1. […] (C) HCT116 colon carcinoma cells were treated with increasing concentrations of analogues 8, 14, 15, CT8, ipomoeassin F or carrier (0.1% DMSO) and cell viability was assessed at 72 h by the Alamar Blue assay (mean ± S.D., n = 4). […]

Data set [4] relates to HCT-116 cells. The data set is described as follows: Metabolic labelling of nascent proteins in HCT116 cells. The format is cell-based, human. As to conditions: HCT-116, 1 μM, 35S labelling. The procedure:
Metabolic Labelling Assays in HCT116 Cells
HCT116 cells were counted using an automated cell counter (BioRad TC20) immediately prior to each experiment. 3 ml of HCT116 cells at a density of 0.166x10^6 cells/mL were seeded to 6-well plates (0.5x10^6 cells/well) and then incubated at 37 °C and 5% CO 2 for 24 h. The compounds were dissolved in DMSO to make drug stocks (10 mM). The stock solutions were diluted with DMEM high glucose culture medium lacking methionine and cysteine to make a fresh working solution immediately prior to each test. Cells were washed twice and 1ml of fresh DMEM lacking methionine and cysteine was added to each well.
Subsequently, the cells were treated with 250 µl of compound solutions in a total volume of 1 ,250 µl/well.
The plate was then incubated at 37 °C and 5% CO 2 for 30 min before 100 µCi 35S-labelled methionine/cysteine was added (Expre35s35s protein labelling mix). Plates were incubated for a further 30 min, then media collected and cells harvested by scraping after four washes in ice-cold PBS. Total protein was acquired by RIPA extraction from the cell pellet, cytoplasmic fraction was acquired by partial permeabilization of the outer cell membranes with 0.15% Digitonin followed by centrifugation, secreted proteins were acquired by TCA precipitation of the media. […]

The test system of data set [5] is MCF-10A. The data set is described as follows: AlamarBlue cytotoxicity assay, MCF-10A. The format is cell-based, human. To be noted: 72 h. The procedure:
as §1
as §2, with “nm.” for “nm. For HCT116 WT and mutant lines, cells were seeded at 1000 cells/ well in complete McCoys medium. Compounds were diluted from a DMSO stock into culture medium as described above. Cells were treated for 96 h, then viability measured with AlamarBlue, detected using the conditions described but with a BMG Fluostar Optima Microplate Reader. The percentage of viability compared to the negative control (DMSO-treated cells) was determined.”
(§3) Microplate Reader. The percentage of viability compared to the negative control (DMSO-treated cells) […]
(§4) was determined. […]
Background: Resazurin is reduced to fluorescent resorufin, in cell work by metabolically active cells.

The test system of data set [6] is MDA-MB-231. In words: AlamarBlue cytotoxicity assay, MDA-MB-231. The format is cell-based, human. To be noted: MDA-MB-231, 72 h, AlamarBlue; read-out: Cytotoxicity (IC50). On the procedure: as §1
as §2, with “nm.” for “nm. For HCT116 WT and mutant lines, cells were seeded at 1000 cells/ well in complete McCoys medium. Compounds were diluted from a DMSO stock into culture medium as described above. Cells were treated for 96 h, then viability measured with AlamarBlue, detected using the conditions described but with a BMG Fluostar Optima Microplate Reader. The percentage of viability compared to the negative control (DMSO-treated cells) was determined.”
as §3, §4

For data set [7], the system named is MCF7. In words: MTT cytotoxicity assay, MCF7. The format is cell-based, human. To be noted: MCF7, 72 h, MTT; read-out: Cytotoxicity (IC50). On the procedure:
Two human breast cancer cell lines (MDA-MB-231 and MCF7) and one human breast non-tumorigenic epithelial cell line (MCF-10A) were maintained in a DMEM high glucose culture medium supplemented with 10% fetal bovine serum (FBS) and 2 mM L-glutamine. The cells were grown in a humidified atmosphere of 5% CO2 and 95% air at 37 °C . The culture medi um w as changed every 2–4 days depending on cell density. Cell cultures were passaged once a week using 0.125% trypsin-EDTA to detach the cells from culture flasks/dishes.
The human colorectal cancer cell line HCT116 was maintained in McCoy’s 5A (modified) medium supplemented with 10% fetal bovine serum (FBS). The human embryonic kidney (HEK293T and HEK293 FRT TRex) cell line was maintained in DMEM high glucose culture medium supplemented with 10% fetal bovine serum (FBS).
HepG2 cells were cultured in DMEM supplemented with 10% fetal bovine serum and 2 mM L-glutamine at 37°C under 5% CO2.
Viable cells were counted with a hemocytometer immediately before each experiment. Experiments were done in triplicate. First, 100 μL of MCF7 cells at the density of 50,000 cells/mL were seeded in a 96-well plate (5,000 cells/well), which was incubated at 37 °C and 5% CO2 atmosphere for 24 h. The compounds were dissolved in DMSO (dimethyl sulfoxide) to make drug stocks (10 mM). The stock solutions were diluted with the complete DMEM high glucose culture medium to make a series of gradient fresh working solutions right before each test. Subsequently, the cells were treated with 100 μL of the freshly made gradient working solution in a total volume of 200 μL/well for 72 h. After that, the media were discarded and 200 μL of the fresh complete medium containing 10% of MTT stock solution (5 mg/mL) was added to each well. The plate was then incubated at 37 °C and 5% CO2 for 3 h. Next, 180 μL of the medium was discarded from each well , and 180 μL of DMSO was added to each well to dissol ve formazan crystals. Absorbance of formazan was detected by a microplate reader (BioTek Synergy H1) at 570 nm with 650 nm as the reference wavelength. The percentage of viability compared to the negative control (DMSO-treated cells) was determined . GraphPad Prism 6 software was used to make a plot of %
For orientation: Formazan colour is commonly taken as a measure of viable cells.

T1 sequence (P38377 whole entry): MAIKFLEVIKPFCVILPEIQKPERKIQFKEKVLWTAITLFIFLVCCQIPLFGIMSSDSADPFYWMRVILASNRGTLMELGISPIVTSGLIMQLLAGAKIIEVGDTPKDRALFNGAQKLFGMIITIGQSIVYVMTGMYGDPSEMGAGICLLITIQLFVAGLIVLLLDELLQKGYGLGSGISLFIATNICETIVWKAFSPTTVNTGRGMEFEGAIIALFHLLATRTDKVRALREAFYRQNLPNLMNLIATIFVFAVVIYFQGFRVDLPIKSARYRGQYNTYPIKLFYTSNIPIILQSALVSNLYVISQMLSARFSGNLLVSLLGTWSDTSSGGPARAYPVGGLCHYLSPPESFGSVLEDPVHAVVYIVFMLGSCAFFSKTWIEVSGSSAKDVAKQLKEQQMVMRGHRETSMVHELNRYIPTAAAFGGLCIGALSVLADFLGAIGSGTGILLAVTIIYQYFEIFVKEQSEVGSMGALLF
T1 sequence (P60467 whole entry, further chain): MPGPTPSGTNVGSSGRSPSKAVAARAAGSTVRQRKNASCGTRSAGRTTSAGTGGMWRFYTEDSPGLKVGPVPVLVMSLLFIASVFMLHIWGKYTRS
T1 sequence (P60058 whole entry, further chain): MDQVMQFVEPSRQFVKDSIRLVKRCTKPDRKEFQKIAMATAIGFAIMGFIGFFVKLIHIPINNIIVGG

On to `C/C=C(\C)C(=O)O[C@@H]1[C@@H](O)[C@@H]2O[C@H]3[C@H](O[C@@H](CCC)CCCCC[C@H](OC(C)=O)C(=O)CCC(=O)OC[C@@H](O2)[C@H]1OC(=O)/C=C/c1ccccc1)O[C@H](C)[C@H](OC(C)=O)[C@@H]3O` [ipomoeassin D], for which the IC50 in data set [1] is 35 nM.
With `C/C=C(\C)C(=O)O[C@@H]1[C@@H](O)[C@@H]2O[C@H]3[C@H](O[C@@H](CCCCC)CCCCCCC(=O)CCC(=O)OC[C@@H](O2)[C@H]1OC(=O)CCc1ccccc1)O[C@H](C)[C@H](OC(C)=O)[C@@H]3O` [compound 14], the “inhibition of Ii membrane insertion” value in data set [2] is given as “far less effective inhibitor”. Moreover, the IC50 in data set [3] stood at 1870 nM. The “inhibition of production of secreted proteins compared with ipomoeassin F” value in data set [4] is “less potently”.
`C/C=C(\C)C(=O)O[C@@H]1[C@@H](O)[C@@H]2O[C@H]3[C@H](O[C@@H](CCCCC)CCCCCCC(=O)CCC(=O)OC[C@@H](O2)[C@H]1OC(=O)/C=C/c1ccc(OCc2cn(CCOCCOCCOCCNS(=O)(=O)c4ccc(-c5c6ccc(=[N+](CC)CC)cc-6oc6cc(N(CC)CC)ccc56)c(S(=O)(=O)[O-])c4)nn2)cc1)O[C@H](C)[C@H](OC(C)=O)[C@@H]3O` [compound 12]: the IC50 in data set [5] was found to be 134 nM; in data set [6], 253 nM; in data set [7] it was 172 nM.
